From patent US8466089B2, “Pyrazole compounds, process for their production and herbicides containing them” (Ishihara Sangyo Kaisha, Ltd., priority 2008, dated 2013)

Columns and labels:
Type in all cases: in vivo
[1] = system: velvetleaf (Abutilon theophrasti MEDIC.), guineagrass (Panicum maximum Jacq.), green foxtail (Setaria viridis L.); test: Test Example 4, foliar treatment, herbicidal effect versus Reference Compounds; details: 3.5 to 15 g/ha, 14th to 28th day after application, test written in present tense
Source text: (§1) Upland field soil is put into a 1/1,000,000 hectare pot, and seeds of various plants are sown. When the respective plants reach predetermined leaf stage ((1) velvetleaf (Abutilon theophrasti MEDIC.), (2) guineagrass (Panicum maximum Jacq.), (3) green foxtail (Setaria viridis L.), and (4) corn (Zea mays L.), a wettable powder of compound No. 2-1 of the above-mentioned present invention, an emulsifiable concentrate of the following Reference Compound 1 and a wettable powder of the following Reference Compound 2, prepared in accordance with a conventional preparation method, are weighed so that the active ingredients become the prescribed amounts 3.5 to 15 g/ha, and diluted with water in an amount corresponding to 300 liter per 1 hectare (containing 0.5 vol % of an agricultural spreader (MSO concentrate, manufactured by Cognis Corporation). The spray solutions thus prepared are applied for foliar treatment by a small sprayer.

corn (Zea mays L.) [2] = test: Test Example 4, foliar treatment, safety to crop plants versus Reference Compounds; details: 3.5 to 15 g/ha, 14th to 28th day after application, test written in present tense
Source text: as §1

corn (Zea mays L.) [3] = test: Test Example 5, foliar treatment versus Reference Compounds; details: 4.0 to 4.3 leaf stage, 7th day after application, read-out: Growth inhibition rate (%) (7th day after application) Corn
Source text: (§2) Upland field soil was put into a 1/1,000,000 hectare pot, and seeds of various plants were sown. When the respective plants reached predetermined leaf stage ((1) velvetleaf (Abutilon theophrasti MEDIC.): 3.0 to 3.5 leaf stage, (2) giant foxtail (Setaria faberi Herrm.): 4.0 to 4.5 leaf stage, (3) green foxtail (Setaria viridis L.): 5.0 to 5.5 leaf stage, and (4) corn (Zea mays L.): 4.0 to 4.3 leaf stage, a wettable powder of compound No. 2-1 of the above-mentioned present invention, a wettable powder of the above-mentioned Reference Compound 1 and a wettable powder of the above-mentioned Reference Compound 2, prepared in accordance with a conventional preparation method, were weighed so that the active ingredients became the prescribed amounts, and diluted with water in an amount corresponding to 300 liter per 1 hectare (containing 0.5 vol % of an agricultural spreader (Destiny HC: WINFIELD SOLUTIONS by LLC). The spray solutions thus prepared were applied for foliar treatment by a small sprayer.
(§3) On the 7th to 20th day after application, the state of growth of the respective plants was visually observed, and the herbicidal effect was evaluated by a growth inhibition rate (%) of 0 (equivalent to the non-treated area) to 100% (complete kill).

[4] = system: giant foxtail (Setaria faberi Herrm.); test: as above; details: 4.0 to 4.5 leaf stage, 20th day after application, read-out: Growth inhibition rate (%) (20th day after application) Giant foxtail
Source text: as §2, §3

[5] = system: green foxtail (Setaria viridis L.); test: as above; details: 5.0 to 5.5 leaf stage, 18th day after application, read-out: Growth inhibition rate (%) (18th day after application) Green foxtail
Source text: as §2, §3

[6] = system: velvetleaf (Abutilon theophrasti MEDIC.); test: as above; details: 3.0 to 3.5 leaf stage, 20th day after application, read-out: Growth inhibition rate (%) (20th day after application) Velvet leaf
Source text: as §2, §3

CCn1ncc(C(=O)c2ccc(S(C)(=O)=O)c(OCCOC)c2C)c1OC(C)OC(=O)OC (stereo not drawn) [Compound No. 2-1, 1-(1-Ethyl-4-(3-(2-methoxyethoxy)-2-methyl-4-(methylsulfonyl)benzoyl)-1H-pyrazol-5-yloxy)ethyl methyl carbonate]
herbicidal effect as compared to Reference Compounds [1]: superior herbicidal effects | safety to crop plants as compared to Reference Compounds (corn (Zea mays L.) [2]): excellent safety to crop plants | inhibition at 90 g/ha (corn (Zea mays L.) [3]): 0% | inhibition at 3.5 g/ha [4]: 83% | inhibition at 7 g/ha [5]: 70% | inhibition at 3.5 g/ha [6]: 80%
